From EP2061765B1, “Serine-threonine protein kinase and PARP modulators” (Senhwa Biosciences, Inc., priority 2006, dated 2008)

Experiments:
Assay in all cases: Cell proliferation assay (Alamar Blue)
Assay type in all cases: cell-based
HCT-116 = settings: Homo sapiens, 96 h, HCT-116 cells, four days
H1299 = settings: Homo sapiens, NCI-H1299, 96 h, H1299 cells, four days
Procedure, shortened: (§1)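 Cells were seeded at 4,000-5,000 per well and exposed to compound dilutions for four days at 37°C, 5% CO2. Alamar Blue was then added for four hours, and fluorescence was read at 544 nm excitation / 590 nm emission.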

Jurkat = settings: Homo sapiens, 96 h, Jurkat cells, four days
Procedure, shortened: as §1

MiaPaCa = settings: Homo sapiens, MIA PaCa-2, 96 h, MiaPaCa cells, four days
Procedure, shortened: as §1

PC3 = settings: Homo sapiens, PC-3, 96 h, PC3 cells, four days
Procedure, shortened: as §1

BxPC3 = settings: Homo sapiens, BXPC-3, 96 h, BxPC3 cells, four days
Procedure, shortened: as §1

PanC1 = settings: Homo sapiens, PANC-1, 96 h, PanC1 cells, four days
Procedure, shortened: as §1

Row | SMILES | IC50 (BxPC3) [µM] | IC50 (PanC1) [µM] | further results
1 | Fc1cccc(Nc2nc3cc(-c4nnn[nH]4)ccc3c3cnccc23)c1 [drawing 305] | – | – | IC50 (HCT-116): > 10 µM; IC50 (H1299): > 50 µM; IC50 (Jurkat): 9.43 µM; IC50 (MiaPaCa): > 10 µM; IC50 (PC3): > 50 µM
2 | Fc1cc(Nc2nc3cc(-c4nnn[nH]4)ccc3c3cnccc23)ccc1Cl [drawing 306] | – | – | IC50 (HCT-116): > 10 µM; IC50 (H1299): > 50 µM; IC50 (Jurkat): 18.8 µM; IC50 (MiaPaCa): > 10 µM; IC50 (PC3): > 50 µM
3 | Clc1cccc(Nc2nc3cc(-c4nnn[nH]4)ccc3c3cnccc23)c1 [drawing 310] | – | – | IC50 (HCT-116): > 10 µM; IC50 (H1299): > 50 µM; IC50 (Jurkat): 14.2 µM; IC50 (MiaPaCa): > 10 µM; IC50 (PC3): 46.6 µM
4 | O=C(O)c1ccc2c(c1)nc(Nc1cccc(Cl)c1)c1nc(O)ncc12 [drawing 493] | 15.8 | > 50 | –
5 | Cc1ncc2c(n1)c(Nc1cccc(Cl)c1)nc1cc(C(=O)O)ccc12 [drawing 494] | 8.88 | > 50 | –
6 | C#Cc1cccc(Nc2nc3cc(C(=O)OC)ccc3c3cnc(NOC)nc23)c1 [drawing 495] | 40 | > 50 | –
7 | COC(=O)c1ccc2c(c1)nc(Nc1cccc(Cl)c1)c1nc(NCCC(N)=O)ncc12 [drawing 496] | 2.62 | 25.5 | –
8 | NC(=O)CCNc1ncc2c(n1)c(Nc1cccc(Cl)c1)nc1cc(C(=O)O)ccc12 [drawing 497] | 20.9 | > 50 | –
9 | O=C(O)CCNc1ncc2c(n1)c(Nc1cccc(Cl)c1)nc1cc(C(=O)O)ccc12 [drawing 498] | 43.5 | > 50 | –
10 | Cc1cccc(Nc2nc3cc(C(=O)O)ccc3c3cnccc23)c1 [drawing 499] | 2.23 | 38 | –
11 | O=C(O)c1ccc2c(c1)nc(Nc1cccc(C(F)(F)F)c1)c1ccncc12 [drawing 500] | 2.6 | 27.2 | –
12 | O=C(O)c1ccc2c(c1)nc(Nc1cc(F)cc(F)c1)c1nc(NC3CC3)ncc12 [drawing 501] | 14.9 | 16.1 | –
13 | O=C(O)c1ccc2c(c1)nc(Nc1cccc(F)c1)c1nc(NC3CC3)ncc12 [drawing 502] | 9.89 | 2.81 | –
14 | COc1cccc(Nc2nc3cc(C(=O)O)ccc3c3cnc(NC4CC4)nc23)c1 [drawing 503] | 8.68 | 3.48 | –
15 | CN(C)CCNc1ncc2c(n1)c(Nc1ccc(F)c(Cl)c1)nc1cc(C(=O)O)ccc12 [drawing 504] | 1.52 | 44.9 | –
16 | O=C(O)c1ccc2c(c1)nc(Nc1ccc(F)c(Cl)c1)c1nc(NCc3ccccn3)ncc12 [drawing 505] | 11.1 | > 50 | –
17 | COC(CNc1ncc2c(n1)c(Nc1ccc(F)c(Cl)c1)nc1cc(C(=O)O)ccc12)OC [drawing 506] | 2.86 | 41.5 | –
18 | NC(=O)c1ccc2c(c1)nc(Nc1cccc(C(F)(F)F)c1)c1nc(NC3CC3)ncc12 [drawing 507] | 0.33 | > 50 | –
19 | O=C(NC1CC1)c1ccc2c(c1)nc(Nc1cccc(C(F)(F)F)c1)c1nc(NC3CC3)ncc12 [drawing 508] | 2.73 | 16 | –
20 | CNC(=O)c1ccc2c(c1)nc(Nc1cccc(C(F)(F)F)c1)c1nc(NC3CC3)ncc12 [drawing 509] | 3 | 18.9 | –
21 | O=C(O)c1ccc2c(c1)nc(Nc1ccc(F)c(Cl)c1)c1nc(NCc3cccnc3)ncc12 [drawing 510] | 3.16 | 20.9 | –
22 | O=C(O)c1ccc2c(c1)nc(Nc1ccccc1)c1nc(Nc3ccccc3)ncc12 [drawing 512] | 40.1 | 3.72 | –
23 | CC(C)OC(=O)Nc1ccc2c(c1)nc(Nc1cccc(C(F)(F)F)c1)c1nc(NC3CC3)ncc12 [drawing 513] | 0.9 | 9.88 | –
24 | CCOC(=O)CCNC(=O)c1ccc2c(c1)nc(Nc1cccc(C(F)(F)F)c1)c1nc(NC3CC3)ncc12 [drawing 514] | 8.76 | 0.44 | –
